Assay results reported in patent publication US12661410B2, “Compounds for targeted degradation of RET” (C4 Therapeutics, Inc., priority 2020, dated 2026).
Changes are numbered by the printed parent chain. Like-named read-outs stand apart in the source and are kept apart here.

Experiments:
[1] = molecular target: T1, RET(KD: 658-1114 G810R) (Homo sapiens, UniProt P07949, G810R); experiment: HiBiT-Degradation, RET G810R degradation assay (Nano-Glo HiBiT Lytic), 293T.165 cells; type: cell-based; settings: for Emax / DC50: 6.0 hours; for Emax: % remaining protein, read-out: 293T.165 RET(KD: 658-1114 G810R) 6.0 hours (Emax); for DC50: read-out: 293T.165 RET(KD: 658-1114 G810R) 6.0 hours (DC50)
T1 construct: 658-1114; expressed in transfected cells; host or cells: 293T.165 (293T cells, generated in-house)
T1 sequence (P07949 658-1114 G810R): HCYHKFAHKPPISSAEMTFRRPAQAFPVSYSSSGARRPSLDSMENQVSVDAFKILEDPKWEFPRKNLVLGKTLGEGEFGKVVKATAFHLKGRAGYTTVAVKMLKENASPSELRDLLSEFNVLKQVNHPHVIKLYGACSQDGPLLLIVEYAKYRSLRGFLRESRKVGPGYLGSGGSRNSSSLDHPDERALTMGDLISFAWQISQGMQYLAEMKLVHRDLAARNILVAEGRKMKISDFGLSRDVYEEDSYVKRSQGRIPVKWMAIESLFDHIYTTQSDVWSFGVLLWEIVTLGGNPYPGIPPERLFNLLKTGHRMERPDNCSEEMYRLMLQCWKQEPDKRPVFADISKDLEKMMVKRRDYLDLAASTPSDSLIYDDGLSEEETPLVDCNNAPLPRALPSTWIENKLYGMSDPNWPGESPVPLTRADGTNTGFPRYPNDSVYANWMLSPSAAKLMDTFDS
Summary of the method: (§1)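 Degradation quantified by HiBiT lytic luminescence in 293T cells expressing tagged WT or G810R RET kinase domain after 6 h dosing up to 10 μM; DC50 and Emax fitted.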

[2] = molecular target: T2, RET (658-1114) (Homo sapiens, UniProt P07949); experiment: HiBiT-Degradation, RET wild-type degradation assay (Nano-Glo HiBiT Lytic), 293T.144 cells; type: cell-based; settings: HiBiT-Degradation; for DC50 / Emax: 6.0 hours; for DC50: read-out: 293T.144 RET (658-1114) 6.0 hours (DC50); for Emax: read-out: 293T.144 RET (658-1114) 6.0 hours (Emax)
T2 construct: 658-1114; expressed in transfected cells; host or cells: 293T.144 (293T cells, generated in-house)
T2 sequence (P07949 658-1114): T1 sequence (P07949 658-1114 G810R) with R153G
Summary of the method: as §1

[3] = half-maximal degradation concentration

Row | SMILES | Emax [1] [%] | DC50 [1, 3] [nM] | 293T.165 RET(KD: 658-1114 G810R) 6.0 hours (Emax) ([1]; HiBiT-Degradation) | 293T.165 RET(KD: 658-1114 G810R) 6.0 hours (IP) [nM] ([1]; HiBiT-Degradation) | DC50 ([1]; HiBiT-Degradation) [nM] | 293T.144 RET (658-1114) 6.0 hours (IP) [nM] [2] | DC50 [2] [nM] | Emax [2] [%]
1 | CC1(NC(=O)Cc2ccccc2)CCN(c2ccc(-c3cc(-c4ccc(N5CCN(C(=O)CN6CCC(c7ccc(NC8CCC(=O)NC8=O)cc7F)CC6)CC5)cc4)cn4ncc(C#N)c34)cn2)CC1 (stereo not drawn) [Compound 23, N-(1-(5-(3-Cyano-6-(4-(4-(2-(4-(4-((2,6-dioxopiperidin-3-yl)amino)-2-fluorophenyl)piperidin-1-yl)acetyl)piperazin-1-yl)phenyl)pyrazolo[1,5-a]pyridin-4-yl)pyridin-2-yl)-4-methylpiperidin-4-yl)-2-phenylacetamide] | < 30 | < 100 | ++++ (< 30% = ++++) | +++ (<100 nM = +++) | < 100 | ++++ (< 50 nM = ++++) | < 50 | < 30
2 | N#Cc1cnn2cc(-c3ccc(N4CCN(C(=O)CN5CCC(c6ccc(NC7CCC(=O)NC7=O)cc6)CC5)CC4)cc3)cc(-c3ccc(N4CCOCC4)nc3)c12 (stereo not drawn) [Compound 24, 6-(4-(4-(2-(4-(4-((2,6-Dioxopiperidin-3-yl)amino)phenyl)piperidin-1-yl)acetyl)piperazin-1-yl)phenyl)-4-(6-morpholinopyridin-3-yl)pyrazolo[1,5-a]pyridine-3-carbonitrile] | < 50 | < 100 | +++ (<50% = +++) | ++++ (< 50 nM = ++++) | < 100 | ++++ (< 50 nM = ++++) | < 50 | < 30
3 | CC(C)(C)NC(=O)C1(C)CCN(c2ccc(-c3cc(-c4ccc(N5CCN(C(=O)CN6CCC(c7ccc(NC8CCC(=O)NC8=O)cc7F)CC6)CC5)cc4)cn4ncc(C#N)c34)cn2)CC1 (stereo not drawn) [Compound 25, N-(tert-butyl)-1-(5-(3-cyano-6-(4-(4-(2-(4-(4-((2,6-dioxopiperidin-3-yl)amino)-2-fluorophenyl)piperidin-1-yl)acetyl)piperazin-1-yl)phenyl)pyrazolo[1,5-a]pyridin-4-yl)pyridin-2-yl)-4-methylpiperidine-4-carboxamide] | < 50 | < 100 | +++ (<50% = +++) | ++++ (< 50 nM = ++++) | < 100 | ++++ (< 50 nM = ++++) | < 50 | < 30
4 | N#Cc1cnn2cc(-c3ccc(N4CCN(C(=O)CN5CCC(c6ccc(NC7CCC(=O)NC7=O)cc6F)CC5)CC4)cc3)cc(-c3ccc(N4CCN(Cc5ccccn5)CC4)nc3)c12 (stereo not drawn) [Compound 28, 6-(4-(4-(2-(4-(4-((2,6-Dioxopiperidin-3-yl)amino)-2-fluorophenyl)piperidin-1-yl)acetyl)piperazin-1-yl)phenyl)-4-(6-(4-(pyridin-2-ylmethyl)piperazin-1-yl)pyridin-3-yl)pyrazolo[1,5-a]pyridine-3-carbonitrile] | < 30 | < 100 | ++++ (< 30% = ++++) | ++++ (< 50 nM = ++++) | < 100 | ++++ (< 50 nM = ++++) | < 50 | < 30
5 | CC(C)NC(=O)C1(C)CCN(c2ccc(-c3cc(-c4ccc(N5CCN(C(=O)CC6(O)CCN(c7ccc(NC8CCC(=O)NC8=O)cc7F)CC6)CC5)cc4)cn4ncc(C#N)c34)cn2)CC1 (stereo not drawn) [Compound 32, 1-(5-(3-Cyano-6-(4-(4-(2-(1-(4-((2,6-dioxopiperidin-3-yl)amino)-2-fluorophenyl)-4-hydroxypiperidin-4-yl)acetyl)piperazin-1-yl)phenyl)pyrazolo[1,5-a]pyridin-4-yl)pyridin-2-yl)-N-isopropyl-4-methylpiperidine-4-carboxamide] | < 50 | < 50 | +++ (<50% = +++) | ++++ (< 50 nM = ++++) | < 50 | ++++ (< 50 nM = ++++) | < 50 | < 30

The next lines start with the values.

Row | Emax [1] [%] | DC50 [1, 3] [nM] | 293T.165 RET(KD: 658-1114 G810R) 6.0 hours (Emax) ([1]; HiBiT-Degradation) | 293T.165 RET(KD: 658-1114 G810R) 6.0 hours (IP) [nM] ([1]; HiBiT-Degradation) | DC50 ([1]; HiBiT-Degradation) [nM] | 293T.144 RET (658-1114) 6.0 hours (IP) [nM] [2] | DC50 [2] [nM] | Emax [2] [%] | SMILES
6 | < 50 | < 50 | +++ (<50% = +++) | ++++ (< 50 nM = ++++) | < 50 | ++++ (< 50 nM = ++++) | < 50 | < 30 | N#Cc1cnn2cc(-c3ccc(N4CCN(C(=O)CC5(O)CCN(c6ccc(NC7CCC(=O)NC7=O)cc6F)CC5)CC4)cc3)cc(-c3ccc(N4CCN(C(=O)Cc5ccc(F)cn5)CC4)nc3)c12 (stereo not drawn) [Compound 26, 6-[4-[4-[2-[1-[4-[(2,6-Dioxo-3-piperidyl)amino]-2-fluoro-phenyl]-4-hydroxy-4-piperidyl]acetyl]piperazin-1-yl]phenyl]-4-[6-[4-[2-(5-fluoro-2-pyridyl)acetyl]piperazin-1-yl]-3-pyridyl]pyrazolo[1,5-a]pyridine-3-carbonitrile]
7 | < 30 | < 50 | ++++ (< 30% = ++++) | ++++ (< 50 nM = ++++) | < 50 | ++++ (< 50 nM = ++++) | < 50 | < 30 | CC(=O)N1CCN(c2ccc(-c3nc(-c4ccc(N5CCN(C(=O)CN6CCC(c7ccc(NC8CCC(=O)NC8=O)cc7)CC6)CC5)cc4)cn4ncc(C#N)c34)cn2)CC1 (stereo not drawn) [Compound 27, 4-(6-(4-acetylpiperazin-1-yl)pyridin-3-yl)-6-(4-(4-(2-(4-(4-((2,6-dioxopiperidin-3-yl)amino)phenyl)piperidin-1-yl)acetyl)piperazin-1-yl)phenyl)pyrazolo[1,5-a]pyrazine-3-carbonitrile]
8 | < 50 | < 50 | +++ (<50% = +++) | ++++ (< 50 nM = ++++) | < 50 | ++++ (< 50 nM = ++++) | < 50 | < 30 | CCC1(C(=O)NC(C)C)CCN(c2ccc(-c3nc(-c4cnn(C5CCN(C(=O)CC6(O)CCN(c7ccc(NC8CCC(=O)NC8=O)cc7F)CC6)CC5)c4)cn4ncc(C#N)c34)cn2)CC1 (stereo not drawn) [Compound 30, 1-(5-(3-Cyano-6-(1-(1-(2-(1-(4-((2,6-dioxopiperidin-3-yl)amino)-2-fluorophenyl)-4-hydroxypiperidin-4-yl)acetyl)piperidin-4-yl)-1H-pyrazol-4-yl)pyrazolo[1,5-a]pyrazin-4-yl)pyridin-2-yl)-4-ethyl-N-isopropylpiperidine-4-carboxamide]
9 | < 30 | < 50 | ++++ (< 30% = ++++) | ++++ (< 50 nM = ++++) | < 50 | ++++ (< 50 nM = ++++) | < 50 | < 30 | CCC1(C(=O)NC(C)C)CCN(c2ccc(-c3nc(-c4cnn(C5CCN(C(=O)CN6CCC(c7ccc(NC8CCC(=O)NC8=O)cc7)CC6)CC5)c4)cn4ncc(C#N)c34)cn2)CC1 (stereo not drawn) [Compound 31, 1-(5-(3-Cyano-6-(1-(1-(2-(4-(4-((2,6-dioxopiperidin-3-yl)amino)phenyl)piperidin-1-yl)acetyl)piperidin-4-yl)-1H-pyrazol-4-yl)pyrazolo[1,5-a]pyrazin-4-yl)pyridin-2-yl)-4-ethyl-N-isopropylpiperidine-4-carboxamide]
